# Experiments:
# CRBN/DDB1 = CRBN/DDB1 (Homo sapiens (Human), UniProt Q96SW2); experiment: IC50 measurements for binding to CRBN/DDB1 (HTRF); conditions: His tagged CRBN+DDB, Cy5-labeled Thalidomide probe, one hour
# Procedure, shortened: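 Serially diluted compounds compete with a Cy5-labeled thalidomide tracer (60 nM) for His-tagged CRBN-DDB1 (2 nM), detected via anti-6His Tb cryptate (0.4 nM); buffer HEPES pH 7.5 with TCEP, Brij-35, NaCl, BSA. One-hour room-temperature incubation, HTRF signal read, IC50 by four-parameter curve.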
# IKZF2 = IKZF2 (Homo sapiens (Human), UniProt Q96SW2+Q9UKS7); experiment: In vitro IKZF2 HiBit Assay (HEK293T Flp-in-HiBiT cells); assay type: cell-based; conditions: HEK293T Flp-in-HiBiT cells, 6 hrs incubation; for DC50: read-out: IKZF2 HiBit DC50; for Dmax: HEK-293T, read-out: IKZF2 HiBit Dmax (%)
# Sequence of IKZF2 (Q9UKS7 whole entry): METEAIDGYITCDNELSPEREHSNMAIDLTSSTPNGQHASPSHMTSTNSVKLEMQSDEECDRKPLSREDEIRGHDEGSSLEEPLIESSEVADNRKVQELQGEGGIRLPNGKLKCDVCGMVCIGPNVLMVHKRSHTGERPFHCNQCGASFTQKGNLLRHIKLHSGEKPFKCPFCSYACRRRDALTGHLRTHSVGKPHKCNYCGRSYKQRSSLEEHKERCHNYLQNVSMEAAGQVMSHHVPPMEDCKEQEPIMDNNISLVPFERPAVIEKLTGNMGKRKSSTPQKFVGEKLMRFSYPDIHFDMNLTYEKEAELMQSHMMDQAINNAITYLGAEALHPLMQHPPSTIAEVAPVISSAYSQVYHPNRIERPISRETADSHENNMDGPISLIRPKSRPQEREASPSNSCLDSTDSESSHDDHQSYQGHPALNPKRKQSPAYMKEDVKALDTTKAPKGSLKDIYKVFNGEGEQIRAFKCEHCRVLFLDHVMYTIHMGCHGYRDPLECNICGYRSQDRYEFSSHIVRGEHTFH
# Sequence of IKZF2 (Q96SW2 whole entry): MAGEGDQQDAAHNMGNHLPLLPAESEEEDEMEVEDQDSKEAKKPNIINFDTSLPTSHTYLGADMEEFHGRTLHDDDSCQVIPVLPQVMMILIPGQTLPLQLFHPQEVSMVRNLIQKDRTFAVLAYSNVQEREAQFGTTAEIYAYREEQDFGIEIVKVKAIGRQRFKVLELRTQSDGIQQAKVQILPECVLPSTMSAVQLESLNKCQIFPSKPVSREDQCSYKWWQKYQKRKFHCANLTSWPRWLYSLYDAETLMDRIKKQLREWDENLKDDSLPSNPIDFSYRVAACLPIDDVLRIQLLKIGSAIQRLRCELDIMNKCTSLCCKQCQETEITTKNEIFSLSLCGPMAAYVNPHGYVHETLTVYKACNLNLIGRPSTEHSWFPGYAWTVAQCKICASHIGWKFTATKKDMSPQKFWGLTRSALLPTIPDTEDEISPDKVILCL
# Sequence of IKZF2 (Q16531 2-1140 partner): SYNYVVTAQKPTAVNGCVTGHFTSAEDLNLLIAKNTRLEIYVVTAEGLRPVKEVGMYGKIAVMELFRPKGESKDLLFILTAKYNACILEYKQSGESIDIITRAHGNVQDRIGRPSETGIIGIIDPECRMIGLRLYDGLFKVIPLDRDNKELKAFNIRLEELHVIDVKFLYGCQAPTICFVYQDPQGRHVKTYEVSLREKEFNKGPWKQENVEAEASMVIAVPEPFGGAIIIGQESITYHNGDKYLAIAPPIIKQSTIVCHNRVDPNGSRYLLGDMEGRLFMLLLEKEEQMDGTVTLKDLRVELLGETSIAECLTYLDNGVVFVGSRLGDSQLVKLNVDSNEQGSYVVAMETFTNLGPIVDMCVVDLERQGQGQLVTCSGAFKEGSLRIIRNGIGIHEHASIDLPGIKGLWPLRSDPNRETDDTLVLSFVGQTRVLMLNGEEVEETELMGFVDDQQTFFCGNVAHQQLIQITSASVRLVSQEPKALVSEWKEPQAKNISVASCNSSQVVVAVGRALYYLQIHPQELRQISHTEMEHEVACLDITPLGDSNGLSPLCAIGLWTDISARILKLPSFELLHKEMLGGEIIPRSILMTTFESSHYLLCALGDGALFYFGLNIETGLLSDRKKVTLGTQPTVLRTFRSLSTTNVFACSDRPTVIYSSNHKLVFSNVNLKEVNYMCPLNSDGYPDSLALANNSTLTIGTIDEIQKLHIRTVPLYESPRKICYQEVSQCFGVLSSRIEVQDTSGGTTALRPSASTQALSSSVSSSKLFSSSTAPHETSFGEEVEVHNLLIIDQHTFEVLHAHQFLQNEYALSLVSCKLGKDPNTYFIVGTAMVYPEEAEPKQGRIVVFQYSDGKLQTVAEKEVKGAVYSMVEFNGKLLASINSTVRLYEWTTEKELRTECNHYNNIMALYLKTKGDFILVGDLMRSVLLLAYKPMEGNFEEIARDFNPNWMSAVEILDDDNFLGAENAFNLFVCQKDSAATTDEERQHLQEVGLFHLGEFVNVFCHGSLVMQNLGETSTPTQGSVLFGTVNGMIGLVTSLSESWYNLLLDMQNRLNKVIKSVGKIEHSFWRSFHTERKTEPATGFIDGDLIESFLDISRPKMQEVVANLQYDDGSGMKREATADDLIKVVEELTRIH
# Procedure, shortened: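 Remaining tagged Helios was read as lytic HiBiT/LgBiT luminescence normalized to DMSO, yielding binned DC50 and Dmax values. Treatment ran 6 h, with compounds at 11 three-fold doses diluted from 1 mM and 0.1% final DMSO. The cells were HEK293T Flp-in with CRISPR knock-in of HiBiT at the IKZF2 N-terminus.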
# IKZF1 = IKZF1 (Homo sapiens (Human), UniProt Q13422+Q96SW2); experiment: In vitro IKZF1 HiBit Assay (HEK293T Flp-in-HiBiT-IKZF1 stable cell line); assay type: cell-based; conditions: HEK293T Flp-in-HiBiT-IKZF1 stable cell line, 6 hrs incubation; for DC50: read-out: IKZF1 HiBit DC50; for Dmax: HEK-293T, read-out: IKZF1 HiBit Dmax (%)
# Sequence of IKZF1 (Q13422 whole entry): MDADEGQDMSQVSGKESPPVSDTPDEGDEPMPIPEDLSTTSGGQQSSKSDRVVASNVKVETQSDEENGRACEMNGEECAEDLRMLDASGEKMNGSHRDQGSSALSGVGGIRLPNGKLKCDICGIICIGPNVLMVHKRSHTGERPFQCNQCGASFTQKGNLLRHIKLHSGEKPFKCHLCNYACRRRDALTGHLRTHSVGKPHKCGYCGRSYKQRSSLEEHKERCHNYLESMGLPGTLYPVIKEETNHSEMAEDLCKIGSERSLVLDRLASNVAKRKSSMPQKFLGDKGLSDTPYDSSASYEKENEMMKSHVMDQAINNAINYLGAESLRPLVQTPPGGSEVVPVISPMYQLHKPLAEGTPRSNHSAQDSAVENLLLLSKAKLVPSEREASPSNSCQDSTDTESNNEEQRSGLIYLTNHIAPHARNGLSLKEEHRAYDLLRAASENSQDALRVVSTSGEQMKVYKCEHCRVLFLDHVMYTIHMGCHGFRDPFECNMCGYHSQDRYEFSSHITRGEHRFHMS
# Sequence of IKZF1 (Q96SW2 whole entry): as the sequence (Q96SW2 whole entry) above
# Sequence of IKZF1 (Q16531 2-1140 partner): as the sequence (Q16531 2-1140 partner) above
# Procedure, shortened: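 Degradation was measured as loss of luminescence from the HiBiT-IKZF1 tag after 6 h compound treatment, with 0.1% final DMSO, in stable HEK293T Flp-in cells. Values were normalized to DMSO, giving the 50% degradation concentration and the maximal degradation range.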
# Sequence of CRBN/DDB1 (Q96SW2 whole entry, species assumed): as the sequence (Q96SW2 whole entry) above
# Sequence of CRBN/DDB1 (Q16531 whole entry partner, species assumed): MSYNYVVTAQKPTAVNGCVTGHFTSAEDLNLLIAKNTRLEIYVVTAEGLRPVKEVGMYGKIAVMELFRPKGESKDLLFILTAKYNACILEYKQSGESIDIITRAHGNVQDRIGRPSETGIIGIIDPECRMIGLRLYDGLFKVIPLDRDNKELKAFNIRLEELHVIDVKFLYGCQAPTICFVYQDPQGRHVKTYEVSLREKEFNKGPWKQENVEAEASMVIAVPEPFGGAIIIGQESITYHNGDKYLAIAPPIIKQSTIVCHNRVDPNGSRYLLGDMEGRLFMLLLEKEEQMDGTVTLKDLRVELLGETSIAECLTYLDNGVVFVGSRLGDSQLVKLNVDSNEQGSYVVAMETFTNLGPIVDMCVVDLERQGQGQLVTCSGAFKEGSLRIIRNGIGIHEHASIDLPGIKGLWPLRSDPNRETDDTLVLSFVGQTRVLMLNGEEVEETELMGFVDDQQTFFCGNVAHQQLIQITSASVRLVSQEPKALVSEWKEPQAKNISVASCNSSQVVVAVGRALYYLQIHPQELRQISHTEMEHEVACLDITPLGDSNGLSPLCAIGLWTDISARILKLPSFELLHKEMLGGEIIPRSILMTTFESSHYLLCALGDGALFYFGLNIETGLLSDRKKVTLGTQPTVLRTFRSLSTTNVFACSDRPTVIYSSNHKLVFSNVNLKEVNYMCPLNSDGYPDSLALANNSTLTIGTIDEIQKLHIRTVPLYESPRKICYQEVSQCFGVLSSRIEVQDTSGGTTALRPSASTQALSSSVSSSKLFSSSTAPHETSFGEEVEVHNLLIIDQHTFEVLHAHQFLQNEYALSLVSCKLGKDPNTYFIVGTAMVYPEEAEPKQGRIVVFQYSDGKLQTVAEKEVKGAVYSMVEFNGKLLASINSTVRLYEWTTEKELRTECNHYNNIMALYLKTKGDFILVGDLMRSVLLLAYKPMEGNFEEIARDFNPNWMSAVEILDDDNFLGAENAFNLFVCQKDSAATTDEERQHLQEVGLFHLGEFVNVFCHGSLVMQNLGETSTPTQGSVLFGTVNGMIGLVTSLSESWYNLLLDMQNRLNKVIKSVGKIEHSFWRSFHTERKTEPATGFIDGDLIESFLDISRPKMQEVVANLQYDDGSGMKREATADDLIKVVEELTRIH
SMILES,IC50 (CRBN/DDB1),DC50 (IKZF2),Dmax (IKZF2),DC50 (IKZF1),Dmax (IKZF1)
"Cn1ccc2c(O[C@@H]3CCNC3)cc(-c3ccc4c(c3)CN([C@H]3CCC(=O)NC3=O)C4=O)nc21 [Example 219, (S)-3-(5-(1-methyl-4-(((R)-pyrrolidin-3-yl)oxy)-1H-pyrrolo[2,3-b]pyridin-6-yl)-1-oxoisoindolin-2-yl) piperidine-2,6-dione]",1000 to 5000 nM,10 to 100 nM,40 to 60%,100 to 1000 nM,20 to 40%
"O=C1CCC(N2Cc3cc(-c4cc(CN5CCCC5)c5[nH]nc(C6CCC6)c5n4)ccc3C2=O)C(=O)N1 (stereo not shown) [Example 224, 3-(5-(3-cyclobutyl-7-(pyrrolidin-1-ylmethyl)-1H-pyrazolo[4,3-b]pyridin-5-yl)-1-oxoisoindolin-2-yl) piperidine-2,6-dione]",1000 to 5000 nM,< 1 nM,60 to 80%,10 to 100 nM,40 to 60%
"O=C1CCC(N2Cc3cc(-c4cc(CN5CCCC5)c5ncn(C6CS(=O)(=O)C6)c5n4)ccc3C2=O)C(=O)N1 (stereo not shown) [Example 225, 3-(5-(3-(1,1-dioxidothietan-3-yl)-7-(pyrrolidin-1-ylmethyl)-3H-imidazo[4,5-b]pyridin-5-yl)-1-oxoisoindolin-2-yl) piperidine-2,6-dione]",500 to 1000 nM,< 1 nM,20 to 40%,> 10000 nM,< 20%
"Cn1ccc2c(C3CCCCN3)cc(-c3ccc4c(c3)CN([C@H]3CCC(=O)NC3=O)C4=O)nc21 (stereo partly drawn) [Example 231, (3S)-3-(5-(1-methyl-4-(piperidin-2-yl)-1H-pyrrolo[2,3-b]pyridin-6-yl)-1-oxoisoindolin-2-yl) piperidine-2,6-dione]",100 to 500 nM,10 to 100 nM,40 to 60%,1 to 10 nM,20 to 40%
"O=C1CCC(N2Cc3cc(-c4cc(CN5CCCC5)c5c(n4)C(=O)NC5)ccc3C2=O)C(=O)N1 (stereo not shown) [Example 233, 3-(1-ox0-5-(7-oxo-4-(pyrrolidin-1-ylmethyl)-6,7-dihydro-5H-pyrrolo[3,4-b]pyridin-2-yl)isoindolin-2-yl) piperidine-2,6-dione]",1000 to 5000 nM,> 10000 nM,< 20%,> 10000 nM,< 20%
"Nc1nn(C2COC2)c2c(CN3CCCC3)cc(-c3ccc4c(c3)CN(C3CCC(=O)NC3=O)C4=O)nc12 (stereo not shown) [Example 234, 3-(5-(3-amino-1-(oxetan-3-yl)-7-(pyrrolidin-1-ylmethyl)-1H-pyrazolo[4,3-b]pyridin-5-yl)-1-oxoisoindolin-2-yl) piperidine-2,6-dione]",1000 to 5000 nM,10 to 100 nM,60 to 80%,1000 to 10000 nM,20 to 40%
"COc1n[nH]c2c(CN3CCCC3)cc(-c3ccc4c(c3)CN(C3CCC(=O)NC3=O)C4=O)nc12 (stereo not shown) [Example 235, 3-(5-(3-methoxy-7-(pyrrolidin-1-ylmethyl)-1H-pyrazolo[4,3-b]pyridin-5-yl)-1-oxoisoindolin-2-yl) piperidine-2,6-dione]",5000 to 10000 nM,1 to 10 nM,60 to 80%,100 to 1000 nM,20 to 40%
"CC(C)Oc1n[nH]c2c(CN3CCCC3)cc(-c3ccc4c(c3)CN(C3CCC(=O)NC3=O)C4=O)nc12 (stereo not shown) [Example 238, 3-(5-(3-isopropoxy-7-(pyrrolidin-1-ylmethyl)-1H-pyrazolo[4,3-b]pyridin-5-yl)-1-oxoisoindolin-2-yl) piperidine-2,6-dione]",1000 to 5000 nM,< 1 nM,60 to 80%,> 10000 nM,< 20%
"CC(C)n1ccc2c(CN3CCCC3)cc(-c3ccc4c(c3)CN(C3CCC(=O)NC3=O)C4=O)nc21 (stereo not shown) [Example 299, 3-(5-(1-isopropyl-4-(pyrrolidin-1-ylmethyl)-1H-pyrrolo[2,3-b]pyridin-6-yl)-1-oxoisoindolin-2-yl) piperidine-2,6-dione]",500 to 1000 nM,1 to 10 nM,60 to 80%,> 10000 nM,< 20%
"Cn1ccc2c(CN3CCC(S(C)(=O)=O)CC3)cc(-c3ccc4c(c3)CN(C3CCC(=O)NC3=O)C4=O)nc21 (stereo not shown) [Example 300, 3-(5-(1-methyl-4-((4-(methylsulfonyl)piperidin-1-yl)methyl)-1H-pyrrolo[2,3-b]pyridin-6-yl)-1-oxoisoindolin-2-yl) piperidine-2,6-dione]",1000 to 5000 nM,10 to 100 nM,60 to 80%,> 10000 nM,< 20%
"Cn1ccc2c(CN3CCC(F)CC3)cc(-c3ccc4c(c3)CN(C3CCC(=O)NC3=O)C4=O)nc21 (stereo not shown) [Example 301, 3-(5-(4-((4-fluoropiperidin-1-yl)methyl)-1-methyl-1H-pyrrolo[2,3-b]pyridin-6-yl)-1-oxoisoindolin-2-yl) piperidine-2,6-dione]",1000 to 5000 nM,< 1 nM,> 80%,10 to 100 nM,20 to 40%
"Cn1ccc2c(CN3CCCCCC3)cc(-c3ccc4c(c3)CN(C3CCC(=O)NC3=O)C4=O)nc21 (stereo not shown) [Example 302, 3-(5-(4-(azepan-1-ylmethyl)-1-methyl-1H-pyrrolo[2,3-b]pyridin-6-yl)-1-oxoisoindolin-2-yl) piperidine-2,6-dione]",1000 to 5000 nM,< 1 nM,> 80%,1 to 10 nM,20 to 40%
"Cn1ccc2c(CN3CCC(O)C3)cc(-c3ccc4c(c3)CN(C3CCC(=O)NC3=O)C4=O)nc21 (stereo not shown) [Example 303, 3-(5-(4-((3-hydroxypyrrolidin-1-yl)methyl)-1-methyl-1H-pyrrolo[2,3-b]pyridin-6-yl)-1-oxoisoindolin-2-yl) piperidine-2,6-dione]",1000 to 5000 nM,1 to 10 nM,> 80%,10 to 100 nM,20 to 40%
"Cn1ccc2c(CN3CCC(F)C3)cc(-c3ccc4c(c3)CN(C3CCC(=O)NC3=O)C4=O)nc21 (stereo not shown) [Example 304, 3-(5-(4-((3-fluoropyrrolidin-1-yl)methyl)-1-methyl-1H-pyrrolo[2,3-b]pyridin-6-yl)-1-oxoisoindolin-2-yl) piperidine-2,6-dione]",1000 to 5000 nM,1 to 10 nM,> 80%,> 10000 nM,< 20%
"Cn1ccc2c(CN3CCC(O)CC3)cc(-c3ccc4c(c3)CN(C3CCC(=O)NC3=O)C4=O)nc21 (stereo not shown) [Example 305, 3-(5-(4-((4-hydroxypiperidin-1-yl)methyl)-1-methyl-1H-pyrrolo[2,3-b]pyridin-6-yl)-1-oxoisoindolin-2-yl) piperidine-2,6-dione]",1000 to 5000 nM,1 to 10 nM,> 80%,> 10000 nM,< 20%
"Cn1ccc2c(CN3CC(O)C3)cc(-c3ccc4c(c3)CN(C3CCC(=O)NC3=O)C4=O)nc21 (stereo not shown) [Example 306, 3-(5-(4-((3-hydroxyazetidin-1-yl)methyl)-1-methyl-1H-pyrrolo[2,3-b]pyridin-6-yl)-1-oxoisoindolin-2-yl) piperidine-2,6-dione]",100 to 500 nM,10 to 100 nM,> 80%,100 to 1000 nM,20 to 40%
"Cn1ccc2c(CN3CC4CCC(C4)C3)cc(-c3ccc4c(c3)CN(C3CCC(=O)NC3=O)C4=O)nc21 (stereo not shown) [Example 308, 3-(5-(4-((3-azabicyclo[3.2.1]octan-3-yl)methyl)-1-methyl-1H-pyrrolo[2,3-b]pyridin-6-yl)-1-oxoisoindolin-2-yl) piperidine-2,6-dione]",100 to 500 nM,1 to 10 nM,> 80%,1 to 10 nM,20 to 40%
"Cn1ccc2c(CN3CCC(C#N)CC3)cc(-c3ccc4c(c3)CN(C3CCC(=O)NC3=O)C4=O)nc21 (stereo not shown) [Example 309, 1-((6-(2-(2,6-dioxopiperidin-3-yl)-1-oxoisoindolin-5-yl)-1-methyl-1H-pyrrolo[2,3-b]pyridin-4-yl)methyl) piperidine-4-carbonitrile]",1000 to 5000 nM,1 to 10 nM,> 80%,1000 to 10000 nM,20 to 40%
"Cn1ncc2nc(-c3ccc4c(c3)CN(C3CCC(=O)NC3=O)C4=O)cc(CN3CCCC3)c21 (stereo not shown) [Example 310, 3-(5-(1-methyl-7-(pyrrolidin-1-ylmethyl)-1H-pyrazolo[4,3-b]pyridin-5-yl)-1-oxoisoindolin-2-yl) piperidine-2,6-dione]",500 to 1000 nM,< 1 nM,> 80%,> 10000 nM,< 20%
"CN1C2CCC1CN(Cc1cc(-c3ccc4c(c3)CN(C3CCC(=O)NC3=O)C4=O)nc3c1ccn3C)C2 (stereo not shown) [Example 311, 3-(5-(1-methyl-4-((8-methyl-3,8-diazabicyclo[3.2.1]octan-3-yl)methyl)-1H-pyrrolo[2,3-b]pyridin-6-yl)-1-oxoisoindolin-2-yl) piperidine-2,6-dione]",500 to 1000 nM,1 to 10 nM,60 to 80%,> 10000 nM,< 20%

# — patent publication US20250214991A1 (Oncopia Therapeutics, Inc. d/b/a/ SK Life Science Labs, priority 2022, published 2025)
